From patent publication US11812774B2, “Composition for browning inhibition and use of same” (SUNTORY HOLDINGS LIMITED, priority 2016, dated 2023)
One block for each molecule: values may come before it.

Experiments:
[1] = Accelerated aging of epicatechin/glyoxal model solution, change in visible absorption spectrum; settings: baicalin 0.5 g/L added to epicatechin 0.5 g/L + glyoxal 0.01 g/L; condition 3 (oxygen aeration, 123° C., 30 minutes); compared to no baicalin
Protocol: The preparation prepared above was subjected to an aging test under the following conditions, and then the visible absorption spectrum was measured. Condition 1: purged with nitrogen, stored at 4° C. for one hour Condition 2: stored at 121° C. for […] Condition 3: after oxygen aeration, stored at 123° C. for 30 minutes Baicalin (0.5 g/L) was added to a model solution obtained by mixing epicatechin (0.5 g/L) with glyoxal (0.01 g/L). The mixture was accelerated-aged under condition 3 (after oxygen aeration, stored at 123° C. for 30 minutes) in Test Example 2, and the amount of change in the visible absorption spectrum (ΔABU) before and after accelerated aging was calculated. FIG. 9 is a diagram showing changes in a visible absorption spectrum of the model solution by addition of baicalin.

[2] = Accelerated aging of baicalin/epicatechin/glyoxal mixtures, visible absorption spectrum and residual catechin by LC-MS; settings: 15 minutes
Protocol: The following three kinds of solutions were prepared. B+G: a mixture of baicalin (0.5 g/L) and glyoxal (0.01 g/L) B+C+G: a mixture of baicalin (0.5 g/L), epicatechin (0.5 g/L), and glyoxal (0.01 g/L) C+G: a mixture of epicatechin (0.5 g/L) and glyoxal (0.01 g/L)
These solutions were kept in an autoclave at 121° C. for 15 minutes for accelerated aging. After accelerated aging, changes in color were checked by visual observation, and further, the visible absorption spectrum was measured.
FIG. 10(a) is a picture showing the appearance of the mixture of baicalin and glyoxal (B+G), the mixture of baicalin, epicatechin, and glyoxal (B+C+G), and the mixture of epicatechin and glyoxal (C+G) after accelerated aging; and FIG. 10(b) is a diagram showing visible absorption spectra of the same (FIG. 10(a): picture, (b): visible absorption spectra). In FIG. 10(b), the solid line indicates the mixture (B+G), the dashed line indicates the mixture (B+C+G), and the long dashed dotted line indicates the mixture (C+G).
Further, after accelerated aging, the amount of epicatechin (the amount of a residual catechin) in the mixture (B+C+G) and the mixture (C+G) was measured by LC-MS under the same conditions as in Test Example 3.

[3] = LC-MS analysis of accelerated-aged mixture of baicalin and glyoxal; settings: baicalin 0.5 g/L + glyoxal 0.01 g/L, condition 3 (oxygen aeration, 123° C., 30 min)
Protocol: A mixture (green tea model) of epicatechin (EC) (0.5 g/L) and glyoxal (0.01 g/L) was accelerated-aged under condition 3 (after oxygen aeration, stored at 123° C. for 30 minutes) in Test Example 2, and analyzed by LC-MS under the following conditions. • LC-MS measurement conditions • LC • Column: 2.5 Cholester (Nacalai Tesque, Inc.) (100 mmL.×2.0 I.D.) • Mobile phase: • A: 0.1% formic acid/H2O • B: 0.1% formic acid/CH3CN • Gradient elution method • Time program (concentration of B solution is expressed in percent by volume): B 5% (0-0.5 min)→B 32% (20 min)→B 100% (25-27.5 min)→B 5% (27.51-30 min) • Flow rate: 0.25 mL/min • Column temperature: 40° C. • Sample injection volume: 2 μL • MS • Probe voltage: +4.5 kV (ESI positive mode) • −3.5 kV (ESI negative mode) • Nebulizer gas flow rate: 1.5 L/min • Drying gas flow rate: 20 L/min • DL temperature: 250° C. • DL voltage/Q-array voltage: default value • SCAN: m/z 100-800 (positive, negative) • SIM: A mixture of baicalin (0.5 g/L) and glyoxal (0.01 g/L) was accelerated-aged under condition 3 (after oxygen aeration, stored at 30 min at 123° C.) of Test Example 2, and analyzed by LC-MS. LC-MS measurement conditions are the same as those in Test Example 5. […]

[4] = Protocol: A sample solution was prepared by dissolving a candidate substance in water to adjust the total phenol amount derived from the candidate substance to 600 ppm. The total phenol amount was measured by the Folin-Denis method, using gallic acid as a standard substance.
[5] = Aldehyde-scavenging substance screening (Br value and Xt value, 96-well microplate); settings: sample solution 600 ppm total phenol; epicatechin + glyoxal; 70° C., 16 hours; Br and Xt values relative to negative control; N=3
Protocol: Aldehyde-scavenging ability of a candidate substance was evaluated based on how much the candidate substance added to a mixture of glyoxal (model aldehyde) and epicatechin (reaction substrate) can inhibit browning. The negative control was distilled water. As positive control, fractions 6, 7, and 8 (mixtures containing baicalin and baicalin glycosides (compounds containing one to three glucose molecules bonded to a sugar moiety of baicalin)) obtained in Preparation 1 were used.
A glyoxal aqueous solution (39% (v/v)) and epicatechin were used as reagents. […]
Accelerated aging was performed at 70° C. for 16 hours, and the area under the spectrum at 400 to 600 nm and the absorbance at 487 nm were measured.
The amount of change in the visible absorbance before and after accelerated aging was calculated. […] The Br value indicates the amount of change Δ in the area under the spectrum at 400 to 600 nm, and the Xt value indicates the amount of change Δ in the absorbance at 487 nm. […] In FIG. 14, the solid line indicates the absorbance when a substance having an aldehyde-scavenging effect (a substance having a browning-inhibiting effect) was added, and the dashed line indicates the absorbance of the negative control. […]

SMILES: O=C(O)[C@H]1O[C@@H](Oc2cc3oc(-c4ccccc4)cc(=O)c3c(O)c2O)[C@H](O)[C@@H](O)[C@@H]1O [baicalin]
- amount of change in the visible absorption spectrum (ΔABU) before and after accelerated aging [1]: significantly reduced
- absorption at 487 nm after accelerated aging ([2]; B+C+G (baicalin 0.5 g/L, epicatechin 0.5 g/L, glyoxal 0.01 g/L) vs C+G, autoclave 121° C.): significantly reduces
- amount of the residual catechin in a solution after accelerated aging ([2]; B+C+G vs C+G, 121° C., epicatechin by LC-MS): increases
- production of compound having a xanthylium structure (brown) by reaction with glyoxal [3]: No compound having a xanthylium structure that exhibits brown was detected

- water solubility [4]: poor water solubility
SMILES: COc1ccc(-c2oc3c(CC=C(C)C)c(O[C@@H]4O[C@H](CO)[C@@H](O)[C@H](O)[C@H]4O)cc(O)c3c(=O)c2O[C@@H]2O[C@@H](C)[C@H](O)[C@@H](O)[C@H]2O)cc1 [icariin]
- aldehyde-scavenging ability [5]: confirmed

SMILES: O=C(O)[C@H]1O[C@@H](Oc2cc3oc(-c4ccc(O)cc4)cc(=O)c3c(O)c2O)[C@H](O)[C@@H](O)[C@@H]1O [scutellarin]
- aldehyde-scavenging ability [5]: confirmed
